Results published in patent US20160193240A1, “Ulmoside-A: Useful For Prevention Or Cure Of Metabolic Diseases” (COUNCIL OF SCIENTIFIC & INDUSTRIAL RESEARCH, priority 2013, published 2016).

System: C2C12 myotubes
Experiment: QRT-PCR of fatty acid transport, oxidation, mitochondrial biogenesis genes in C2C12 myotubes
Assay type: cell-based, mouse
Conditions: 10 nM, 12 or 24 hours
Description: A. ULMA induces expression of fatty acid transport, oxidation, mitochondrial biogenesis and energy dissipation related genes. C2C12 myotubes in 6 well plates were treated with 10 nM ULMA or vehicle (designated as 0 h; 0.1% vol/vol DMSO) for 12 h or 24 h. Following treatment, RNA was extracted and 1 μg RNA from each well was used to prepare cDNA and the cDNAs were then used for quantitative real-time PCR for indicated genes. Beta-actin was used as normalizing control. The relative mRNA level was quantitated using ddCT method and plotted as fold activity over vehicle treated control (0 h). Data is mean±SEM of 4-6 independent experiments performed in triplicates. *p<0.05, **p<0.01, ***p<0.001 compared to vehicle (DMSO) treated controls as determined by two tailed unpaired student's t-test.
Adiponectin enhances transcription of genes regulating fatty acid transport, fatty acid-oxidation and mitochondrial uncoupling proteins in skeletal muscle and myotubes (T. Kadowaki, T. Yamauchi, N. Kubota, K. Hara, K. Ueki, K. Tobe. J Clin Invest. 116(7): 1784-92. 2006; S. Dridi, M. Taouis. Journal of Nutritional Biochemistry 20 (2009): 831-839. 2009; M. Iwabu, T. Yamauchi, M. Okada-Iwabu, K. Sato, T. Nakagawa, M. Funata, M. Yamaguchi, S. Namiki, R. Nakayama, M. Tabata, H. Ogata, N. Kubota, I. Takamoto, Y. K. Hayashi, N. Yamauchi, H. Waki, M. Fukayama, I. Nishino, K. Tokuyama, K. Ueki, Y. Oike, S. Ishii, K. Hirose, T. Shimizu, K. Touhara, T. Kadowaki. Nature; 464(7293):1313-1319. 2010). The ability of ULMA to influence expression of these genes were checked in c2c12 myotubes. C2C12 myotubes in 6 well plates were treated with 10 nM ULMA or vehicle (DMSO) for 12 hours or 24 hours. Following treatment, the cells were washed with ice-cold PBS and RNA was extracted using Trizol (Ambion) according to manufacturer's instructions. The RNAs were quantitated using a spectrophotometer (nanophotometer; Implen GMBH) and 1 μg RNA was used to prepare cDNA using a cDNA synthesis kit (Applied Biosystems). cDNAs were then used for quantitative real-time PCR for indicated genes (FIG. 3A) using Veriquest SYBR green QRT-PCR mastermix (US Biologicals) and a Roche lightcycler 480 thermal cycler (Roche Diagnostics). Beta-actin was used as normalizing control. The relative mRNA level was quantitated using ddCT method. […] Adiponectin is also known to induce muscle and adipose glucose transporter 4 (GLUT4) expressions; and the ability of ULMA to induce the expression of GLUT4, PPAR and PGC-1α was investigated by western blotting. C2C12 myotubes in 10 cm dish were treated with vehicle (DMSO) or 10 nM ULMA in DMSO for 24 hours or 48 hours followed by western blotting as described [S. K. Dwivedi, N. Singh, R. Kumari, J. S. Mishra, S. Tripathi, P. Banerjee, P. Shah, V. Kukshal, A. M. Tyagi, A. N. Gaikwad, R. K. Chaturvedi, D. P. Mishra, A. K. Trivedi, S. Sanyal, N. Chattopadhyay, R. Ramachandran, M. I. Siddiqi, A. Bandyopadhyay, A. Arora, T. Lundasen, S. P. Anakk, D. D. Moore, S. Sanyal. Mol Endocrinol. 25(6): 922-932. 2011).

O=C1c2c(cc(O)c([C@@H]3O[C@H](CO)[C@@H](O)[C@H](O)[C@H]3O)c2O)O[C@@H](c2ccc(O)c(O)c2)[C@@H]1O [ULMA, (2S,3S)-(+)-3′,4′,5,7-tetrahydroxydihydroflavonol-6-C-β-D-glucopyranoside]
induced expressions: uncoupling protein 2 mRNA expression | uncoupling protein 3 mRNA expression
induced expression: CD36 mRNA expression | FABP3 mRNA expression | PGC-1α mRNA expression | PPARα mRNA expression
enhanced expressions: ACOX1 mRNA expression | CPT1B mRNA expression | fatty acyl CoA synthetase mRNA expression
